# Source: patent US20100092526A1, “NANOEMULSION THERAPEUTIC COMPOSITIONS AND METHODS OF USING THE SAME” (NanoBio Corporation, priority 2008, published 2010)
# How the values were obtained:
# [1] = system: Burkholderia strains; test: Checkerboard synergy study (FIC/FBC index); type: cell-based; conditions: for Summary of synergy data (overall interaction): Burkholderia, combined with P4075EC & 5 mM EDTA
# [2] = system: Stenotrophomonas strains; test: Checkerboard synergy study (FIC/FBC index); type: cell-based; conditions: for Summary of synergy data (overall interaction): Stenotrophomonas, combined with P4075EC & 1 mM EDTA
# [3] = system: Acinetobacter strains; test: Checkerboard synergy study (FIC/FBC index); type: cell-based; conditions: for Summary of synergy data (overall interaction): Acinetobacter, combined with P4075EC & 1 mM EDTA
# [4] = system: P. aeruginosa, B. cenocepacia, A. baumannii and S. maltophilia; test: MIC/MBC against all strains of Example 8; conditions: for MBC: read-out: MBC90, against all strains
# [5] = system: subset (23) of gram-negative isolates; test: Cidality (MBC/MIC ratio) against a subset (23) of gram-negative isolates; type: cell-based, gram-negative bacteria; conditions: 23 isolates
# [6] = system: methicillin-resistant Staphylococcus aureus (MRSA); test: Susceptibility (MIC/MBC) of MRSA clinical isolates; type: cell-based; conditions: Staphylococcus aureus; MRSA isolates; read-out: MIC90
# [7] = isolate NB21, combined with P4075EC+EDTA
# [8] = isolate NB22, combined with P4075EC+EDTA
# [9] = isolate NB23, combined with P4075EC+EDTA
# [10] = isolate NB24, combined with P4075EC+EDTA
# [11] = isolate NB25, combined with P4075EC+EDTA
# [12] = isolate NB26, combined with P4075EC+EDTA
# [13] = isolate NB27, combined with P4075EC+EDTA
# [14] = isolate NB28b, combined with P4075EC+EDTA
# [15] = isolate NB29, combined with P4075EC+EDTA
# [16] = isolate NB30, combined with P4075EC+EDTA
# [17] = share of ten Burkholderia strains with synergy, combined with P4075EC+EDTA
# [18] = isolate NB42, combined with P4075EC+EDTA
# [19] = isolate NB43, combined with P4075EC+EDTA
# [20] = isolate NB44, combined with P4075EC+EDTA
# [21] = isolate NB45, combined with P4075EC+EDTA
# [22] = isolate Steno 1, combined with P4075EC+EDTA
# [23] = isolate Steno 2, combined with P4075EC+EDTA
# [24] = isolate Steno 3, combined with P4075EC+EDTA
# [25] = isolate Steno 4, combined with P4075EC+EDTA
# [26] = isolate Steno 6, combined with P4075EC+EDTA
# [27] = isolate Steno 8, combined with P4075EC+EDTA
# [28] = share of Stenotrophomonas strains with synergy, combined with P4075EC+EDTA
# [29] = isolate NB31, combined with P4075EC+EDTA
# [30] = isolate NB32, combined with P4075EC+EDTA
# [31] = isolate NB33, combined with P4075EC+EDTA
# [32] = isolate NB34, combined with P4075EC+EDTA
# [33] = isolate NB35, combined with P4075EC+EDTA
# [34] = isolate NB36, combined with P4075EC+EDTA
# [35] = isolate NB37, combined with P4075EC+EDTA
# [36] = isolate NB38, combined with P4075EC+EDTA
# [37] = isolate NB39, combined with P4075EC+EDTA
# [38] = isolate NB40, combined with P4075EC+EDTA
# [39] = share of 10 Acinetobacter strains with synergy, combined with P4075EC+EDTA
compound,measurement,setting,value
Colistin,Summary of synergy data (overall interaction),[1],No Interference
same,FBC,[1]; [7],2.07
same,FIC,[1]; [7],1.45
same,Synergy (FBC),[1]; [7],indifferent
same,Synergy (FIC),[1]; [7],indifferent
same,FBC,[1]; [8],2.29
same,FIC,[1]; [8],1.37
same,Synergy (FBC),[1]; [8],indifferent
same,Synergy (FIC),[1]; [8],indifferent
same,FBC,[1]; [9],2.00
same,FIC,[1]; [9],1.01
same,Synergy (FBC),[1]; [9],indifferent
same,Synergy (FIC),[1]; [9],indifferent
same,FBC,[1]; [10],2.00
same,FIC,[1]; [10],1.72
same,Synergy (FBC),[1]; [10],indifferent
same,Synergy (FIC),[1]; [10],indifferent
same,FBC,[1]; [11],3.00
same,FIC,[1]; [11],2.00
same,Synergy (FBC),[1]; [11],indifferent
same,Synergy (FIC),[1]; [11],indifferent
same,FBC,[1]; [12],0.04
same,FIC,[1]; [12],0.56
same,Synergy (FBC),[1]; [12],yes
same,Synergy (FIC),[1]; [12],yes
same,FBC,[1]; [13],1.64
same,FIC,[1]; [13],1.93
same,Synergy (FBC),[1]; [13],indifferent
same,Synergy (FIC),[1]; [13],indifferent
same,FBC,[1]; [14],1.54
same,FIC,[1]; [14],0.29
same,Synergy (FBC),[1]; [14],indifferent
same,Synergy (FIC),[1]; [14],yes
same,FBC,[1]; [15],1.68
same,FIC,[1]; [15],1.61
same,Synergy (FBC),[1]; [15],indifferent
same,Synergy (FIC),[1]; [15],indifferent
same,FBC,[1]; [16],1.86
same,FIC,[1]; [16],0.02
same,Synergy (FBC),[1]; [16],indifferent
same,Synergy (FIC),[1]; [16],yes
same,% FBC Synergy,[1]; [17],10%
same,% FIC Synergy,[1]; [17],30%
same,Summary of synergy data (overall interaction),[2],Synergy
same,FBC,[2]; [18],1.28
same,FIC,[2]; [18],0.08
same,Synergy (FBC),[2]; [18],indifferent
same,Synergy (FIC),[2]; [18],yes
same,FBC,[2]; [19],0.15
same,FIC,[2]; [19],0.08
same,Synergy (FBC),[2]; [19],yes
same,Synergy (FIC),[2]; [19],yes
same,FBC,[2]; [20],0.57
same,FIC,[2]; [20],1.01
same,Synergy (FBC),[2]; [20],indifferent
same,Synergy (FIC),[2]; [20],indifferent
same,FBC,[2]; [21],0.45
same,FIC,[2]; [21],0.04
same,Synergy (FBC),[2]; [21],yes
same,Synergy (FIC),[2]; [21],yes
same,FBC,[2]; [22],0.11
same,FIC,[2]; [22],0.08
same,Synergy (FBC),[2]; [22],yes
same,Synergy (FIC),[2]; [22],yes
same,FBC,[2]; [23],0.04
same,FIC,[2]; [23],0.09
same,Synergy (FBC),[2]; [23],yes
same,Synergy (FIC),[2]; [23],yes
same,FBC,[2]; [24],0.14
same,FIC,[2]; [24],0.09
same,Synergy (FBC),[2]; [24],yes
same,Synergy (FIC),[2]; [24],yes
same,FBC,[2]; [25],1.14
same,FIC,[2]; [25],0.46
same,Synergy (FBC),[2]; [25],indifferent
same,Synergy (FIC),[2]; [25],yes
same,FBC,[2]; [26],0.02
same,FIC,[2]; [26],0.09
same,Synergy (FBC),[2]; [26],yes
same,Synergy (FIC),[2]; [26],yes
same,FBC,[2]; [27],0.07
same,FIC,[2]; [27],0.09
same,Synergy (FBC),[2]; [27],yes
same,Synergy (FIC),[2]; [27],yes
same,% FBC Synergy,[2]; [28],70%
same,% FIC Synergy,[2]; [28],90%
same,Summary of synergy data (overall interaction),[3],No Interference
same,FBC,[3]; [29],2.44
same,FIC,[3]; [29],0.83
same,Synergy (FBC),[3]; [29],indifferent
same,Synergy (FIC),[3]; [29],indifferent
same,FBC,[3]; [30],1.36
same,FIC,[3]; [30],0.58
same,Synergy (FBC),[3]; [30],indifferent
same,Synergy (FIC),[3]; [30],indifferent
same,FBC,[3]; [31],2
same,FIC,[3]; [31],0.33
same,Synergy (FBC),[3]; [31],indifferent
same,Synergy (FIC),[3]; [31],yes
same,FBC,[3]; [32],1.10
same,FIC,[3]; [32],0.46
same,Synergy (FBC),[3]; [32],indifferent
same,Synergy (FIC),[3]; [32],yes
same,FBC,[3]; [33],0.97
same,FIC,[3]; [33],0.72
same,Synergy (FBC),[3]; [33],indifferent
same,Synergy (FIC),[3]; [33],indifferent
same,FBC,[3]; [34],2
same,FIC,[3]; [34],0.56
same,Synergy (FBC),[3]; [34],indifferent
same,Synergy (FIC),[3]; [34],indifferent
same,FBC,[3]; [35],1.00
same,FIC,[3]; [35],0.63
same,Synergy (FBC),[3]; [35],indifferent
same,Synergy (FIC),[3]; [35],indifferent
same,FBC,[3]; [36],0.68
same,FIC,[3]; [36],0.77
same,Synergy (FBC),[3]; [36],indifferent
same,Synergy (FIC),[3]; [36],indifferent
same,FBC,[3]; [37],1.22
same,FIC,[3]; [37],0.72
same,Synergy (FBC),[3]; [37],indifferent
same,Synergy (FIC),[3]; [37],indifferent
same,FBC,[3]; [38],0.91
same,FIC,[3]; [38],0.63
same,Synergy (FBC),[3]; [38],indifferent
same,Synergy (FIC),[3]; [38],indifferent
same,% FBC Synergy,[3]; [39],0%
same,% FIC Synergy,[3]; [39],20%
NC[C@H]1O[C@H](O[C@H]2[C@H](O)[C@@H](O[C@H]3O[C@H](CO)[C@@H](O)[C@H](N)[C@H]3O)[C@H](N)C[C@@H]2N)[C@H](N)C[C@@H]1O [Tobramycin],Summary of synergy data (overall interaction),[1],No Interference
same,Summary of synergy data (overall interaction),[2],No Interference
same,Summary of synergy data (overall interaction),[3],No Interference
same,MIC90,[4],> 32 µg/mL
same,MBC,[4],> 32 µg/mL
C[C@H]1COc2c(N3CCN(C)CC3)c(F)cc3c(=O)c(C(=O)O)cn1c23 [Levofloxacin],number of strains with MBC/MIC ratio 1,[5]; Cidal,9 number of strains
same,number of strains with MBC/MIC ratio 2,[5]; Cidal,8 number of strains
same,number of strains with MBC/MIC ratio 4,[5]; Cidal,1 number of strains
same,number of strains with MBC/MIC ratio >8x,[5]; Static,5 number of strains
same,MIC90,[6],32 µg/mL
same,MIC90,[4],16 µg/mL
same,MBC,[4],16 µg/mL
